Results from patent US20220168430A1, “THERAPEUTIC METHODS FOR TREATING HEPATITIS B” (priority 2019, published 2022).
Read-outs that look alike come from different tables or passages of the source.

Experiments:
HBV DNA [1] = experiment: Serum HBV DNA in pHBV1.3 hydrodynamic injection mouse model of HBV (Example 12); assay type: in vivo, NOD.CB17-Prkdc scid/J mice; HBV genotype D, serotype ayw; conditions: once daily oral from Day 0: RNA destabilizer 10 mg/kg, encapsidation inhibitor 100 mg/kg, nucleos(t)ide analog 0.4 mg/kg, group mean ± SEM, n=7 or 8, from negative control
Protocol: (§1) On Day −7, 10 micrograms of the plasmid pHBV1.3 (constructed based on details provided in Guidotti, L., et al., Journal of Virology, 1995, 69(10): 6158-6169) was administered to NOD.CB 17-Prkdc^scid/J mice via hydrodynamic injection (HDI; rapid 1.6 mL injection into the tail vein). […] As readouts of the anti-HBV effect of the treatments, serum HBV DNA and serum HBsAg were assessed. Serum HBV DNA concentration in mice was measured using a quantitative PCR assay following total DNA extraction using previously published primers and probe sequences (Tanaka, Y., et al., Journal of Medical Virology, 2004, 72: 223-229). Serum HBsAg concentration in mice was measured using a commercially available ELISA kit (HBsAg EIA 3.0 480 Test Kit, Bio-Rad).
(§2) Animals were treated with RNA destabilizer as follows: Starting on Day 0, a 10 mg/kg dosage of RNA destabilizer was administered orally to animals on a once-daily frequency for a total of seven doses across the duration of the study. Animals were treated with encapsidation inhibitor as follows: Starting on Day 0, a 100 mg/kg dosage of encapsidation inhibitor was administered orally to animals on a once-daily frequency for a total of seven doses across the duration of the study. Animals were treated with nucleos(t)ide analog as follows: Starting on Day 0, a 0.4 mg/kg dosage of nucleos(t)ide analog was administered orally to animals on a once-daily frequency for a total of seven doses across the duration of the study. The RNA destabilizer, the encapsidation inhibitor, and nucleos(t)ide analog were each dissolved in the same co-solvent formulation for administration and negative control animals were administered the co-solvent formulation alone. To calculate treatment-specific effects, the treated groups are compared against negative control (vehicle treated) animals.
(§3) The effect of these treatments was determined by collecting blood on Days −1 (prior to study's treatment phase), 4, and 7 and analyzing it for serum HBV DNA and HBsAg content.

HBsAg [2] = experiment: Serum HBsAg in pHBV1.3 hydrodynamic injection mouse model of HBV (Example 12); assay type: in vivo, NOD.CB17-Prkdc scid/J mice; HBV genotype D, serotype ayw; conditions: once daily oral from Day 0: RNA destabilizer 10 mg/kg, encapsidation inhibitor 100 mg/kg, nucleos(t)ide analog 0.4 mg/kg, group mean ± SEM, n=7 or 8, from negative control
Protocol: as §1, §2, §3

HBV DNA [3] = assay type: in vivo, C57BL/6 mice; HBV serotype Ayw, genotype D; conditions: for Serum HBV DNA: group mean ± SEM, n=6
Protocol: (§4) Prior to treatment start, 1×10^11 viral genomes of an adeno-associated virus (AAV) vector carrying a 1.3-fold overlength copy of an HBV genome (serotype Ayw, genotype D) was administered to C57BL/6 mice via intravenous injection. Introduction of this viral vector results in the expression of HBV DNA and HBV surface antigen (HBsAg) amongst other HBV products. Serum HBV DNA levels in mice was measured using a quantitative polymerase chain reaction (QPCR) assay, HBsAg in serum and liver of mice was measured using an enzyme-linked immunosorbent assay (ELISA), and anti-HBsAg antibodies were measured using ELISA.
(§5) Treatment effects on serum HBV DNA were determined by collecting a small amount of blood on Days 0 (pre-treatment) and 14, as well as from terminal blood collections at Day 42. Treatment effects on HBsAg in serum and liver were determined from terminal sample collections at Day 42.
(§6) Any individual animal samples measured to fall below assay lower limit of quantitation (LLOQ) were reported as the LLOQ value.

HBsAg [4] = experiment: Liver HBsAg by ELISA in AAV-HBV mouse model (Example 18); assay type: in vivo, C57BL/6 mice; HBV serotype Ayw, genotype D; conditions: Study Day 42; siRNA 3 mg/kg s.c. Days 0 and 28, encapsidation inhibitor 100 mg/kg and/or TDF 1 mg/kg oral daily Days 0-41; group mean ± SEM, n=6
Protocol: as §4, §5, §6

HBV rcDNA = experiment: microbe, parasite or virus in culture; assay type: cell-based, HBV genotype D, serotype ayw; HepG 2.2.15; conditions: for SYNERGY PLOT (99%) Bonferroni Adj. 55%: TDF 0 μM, Cmpd 1 by row r37-r42: 0.405, 0.135, 0.045, 0.015, 0.005, 0 μM
Protocol: In vitro triple agent combination studies were conducted using the method of Prichard and Shipman 1990 (Prichard M N, Shipman C, Jr. 1990. Antiviral Res 14:181-205). The HepG 2.2.15 cell line was derived from HepG2 cells with constitutive expression of HBV (genotype D, serotype ayw) (Sells M A, Chen M L, Acs G. 1987. Proc Natl Acad Sci USA 84:1005-9). […] The plates were incubated for 7 days in a humidified incubator at 37° C. and 5% CO2. The level of rcDNA present in the culture supernatants was measured using a Quantigene 2.0 bDNA assay kit (Affymetrix, Santa Clara, Calif.) with HBV specific custom probe set (genotype D ayw) and according to the manufacturer's instructions and read using a luminescence plate reader and the relative luminescence units (RLU) data generated from each well was calculated as % inhibition of the untreated control wells and analyzed using the MacSynergy II program to determine whether the combinations were synergistic, additive or antagonistic using the interpretive guidelines established by Prichard and Shipman (Prichard M N, Shipman C, Jr. 1990. […] Concurrently, in each experiment, the effect of inhibitor combinations on cell viability was assessed in triplicates that were used to determine the ATP content as a measure of cell viability using the Cell-Titer Glo reagent (Promega, Madison, Wis.) as per the manufacturer's instructions.

[5] = Hepatitis B virus, HepG2.2.15, read-out: ADDITIVE INHIBITION

In the case of `CC(C)OC(=O)OCOP(=O)(CO[C@H](C)Cn1cnc2c(N)ncnc21)OCOC(=O)OC(C)C.O=C(O)/C=C/C(=O)O` [TDF, tenofovir disoproxil fumarate, reference compound], the “Serum HBV DNA log reduction” value (HBV DNA [1]; Day 4) is reported as 1.2 ± 0.2 log, the “Serum HBV DNA log reduction” value (HBV DNA [1]; Day 7) is reported as 1.7 ± 0.1 log and the “Serum HBsAg log reduction” value (HBsAg [2]; Day 4) is reported as −0.01 ± 0.12 log. For the same molecule, the “Serum HBsAg log reduction” value (HBsAg [2]; Day 7) was 0.10 ± 0.07 log, the “Serum HBV DNA” value (HBV DNA [3]; Day 0 (pre-treatment)) was 4.31 ± 0.10 log10 copies/microliter and the “Serum HBV DNA” value (HBV DNA [3]; Day 14, siRNA 3 mg/kg s.c. Days 0 and 28, encapsidation inhibitor 100 mg/kg and/or TDF 1 mg/kg oral daily) was 3.11 ± 0.15 log10 copies/microliter. The “Serum HBV DNA” value (HBV DNA [3]; Day 42, siRNA 3 mg/kg s.c. Days 0 and 28, encapsidation inhibitor 100 mg/kg and/or TDF 1 mg/kg oral daily Days 0-41) was 3.58 ± 0.14 log10 copies/microliter, the “HBV DNA inhibition, decrease from Day 0 to Day 42” value (HBV DNA [3]; serum, AAV-HBV mice, siRNA 3 mg/kg s.c. Days 0 and 28, encapsidation inhibitor 100 mg/kg and/or TDF 1 mg/kg oral daily) was 0.73 log10 and the “Liver HBsAg” value (HBsAg [4]) was 1.77 ± 0.03 log10 IU/mg liver protein.
For `COCCCOc1cc2c(nc1OC)-c1cc(=O)c(C(=O)O)cn1[C@H](C(C)C)C2` [Compound 2], the “AVERAGE % INHIBITION” value (HBV rcDNA; Cmpd 1 0 μM, Cmpd 2 0.0001 μM, TAF 0 μM) was 31.76%, the “AVERAGE % INHIBITION” value (HBV rcDNA; Cmpd 1 0 μM, Cmpd 2 0.0002 μM, TAF 0 μM) was 43.68% and the “AVERAGE % INHIBITION” value (HBV rcDNA; Cmpd 1 0 μM, Cmpd 2 0.0004 μM, TAF 0 μM) was 58.53%. The “AVERAGE % INHIBITION” value (HBV rcDNA; Cmpd 1 0 μM, Cmpd 2 0.001 μM, TAF 0 μM) was 71.85%, the “AVERAGE % INHIBITION” value (HBV rcDNA; Cmpd 1 0 μM, Cmpd 2 0.002 μM, TAF 0 μM) was 78.06% and the “AVERAGE % INHIBITION” value (HBV rcDNA; Cmpd 1 0 μM, Cmpd 2 0.003 μM, TAF 0 μM) was 83.72%. The “AVERAGE % INHIBITION” value (HBV rcDNA; Cmpd 1 0 μM, Cmpd 2 0.007 μM, TAF 0 μM) was 85.49%, the “AVERAGE % INHIBITION” value (HBV rcDNA; Cmpd 1 0 μM, Cmpd 2 0.027 μM, TAF 0 μM) was 87.17% and the “AVERAGE % INHIBITION” value (HBV rcDNA; Cmpd 1 0 μM, Cmpd 2 […], TAF 0 μM) was 89.05%. The “SYNERGY PLOT (99%) Bonferroni Adj. 55%” value (HBV rcDNA; Cmpd 2 0.00002 μM) was 0, the “SYNERGY PLOT (99%) Bonferroni Adj. 55%” value (HBV rcDNA; Cmpd 2 0.00004 μM) was 0 and the “SYNERGY PLOT (99%) Bonferroni Adj. 55%” value (HBV rcDNA; Cmpd 2 0.00008 μM) was 0. The “SYNERGY PLOT (99%) Bonferroni Adj. 55%” value (HBV rcDNA; Cmpd 2 0.00016 μM) was 0, the “SYNERGY PLOT (99%) Bonferroni Adj. 55%” value (HBV rcDNA; Cmpd 2 0.0003 μM) was 0 and the “SYNERGY PLOT (99%) Bonferroni Adj. 55%” value (HBV rcDNA; Cmpd 2 0.0006 μM) was 0. For the same molecule, the “SYNERGY PLOT (99%) Bonferroni Adj. 55%” value (HBV rcDNA; Cmpd 2 0.001 μM) was 0, the “SYNERGY PLOT (99%) Bonferroni Adj. 55%” value (HBV rcDNA; Cmpd 2 0.003 μM) was 0 and the “SYNERGY PLOT (99%) Bonferroni Adj. 55%” value (HBV rcDNA; Cmpd 2 0.005 μM) was 0. For the same molecule, the “AVERAGE % INHIBITION” value (HBV rcDNA; ETV @ 0 μM, Cmpd 2 0.0001 μM alone) was 39.44%, the “AVERAGE % INHIBITION” value (HBV rcDNA; ETV @ 0 μM, Cmpd 2 0.0002 μM alone) was 47.6% and the “AVERAGE % INHIBITION” value (HBV rcDNA; ETV @ 0 μM, Cmpd 2 0.0004 μM alone) was 67.99%. The “AVERAGE % INHIBITION” value (HBV rcDNA; ETV @ 0 μM, Cmpd 2 0.001 μM alone) was 74.24%, the “AVERAGE % INHIBITION” value (HBV rcDNA; ETV @ 0 μM, Cmpd 2 0.002 μM alone) was 77.97% and the “AVERAGE % INHIBITION” value (HBV rcDNA; ETV @ 0 μM, Cmpd 2 0.003 μM alone) was 83.78%. The “AVERAGE % INHIBITION” value (HBV rcDNA; ETV @ 0 μM, Cmpd 2 0.007 μM alone) was 86.78%, the “AVERAGE % INHIBITION” value (HBV rcDNA; ETV @ 0 μM, Cmpd 2 0.027 μM alone) was 88.04% and the “AVERAGE % INHIBITION” value (HBV rcDNA; ETV @ 0 μM, Cmpd 2 […] alone) was 88.65%. The inhibition at 20 pM (HBV rcDNA; [5]) was 7.15%, the inhibition at 40 pM (HBV rcDNA; [5]) was 9.56% and the inhibition at 0.00016 µM (HBV rcDNA; [5]) was 36.2%. It also gave an inhibition at 0.0003 µM (HBV rcDNA; [5]) of 40.9%, an inhibition at 0.0006 µM (HBV rcDNA; [5]) of 64.5% and an inhibition at 0.001 µM (HBV rcDNA; [5]) of 69.8%. It also gave an inhibition at 0.003 µM (HBV rcDNA; [5]) of 74.5% and an inhibition at 0.005 µM (HBV rcDNA; [5]) of 77.5%.
